The test system of this assay is primary rat mixed cortical cells. The assay is described as follows: In vitro myelination assay (MBP positive myelin strands, fold myelin pixels above background). The conditions noted are these: Rattus norvegicus; for fold induction at 1 µM: 1.0 μM compound; for fold induction at 10 µM: 10.0 μM compound. In kind it is cell-based. The source says:
In Vitro Myelination Assay
Compounds were screened for their ability to induce myelination using a primary rat mixed cortical cell culture assay, which contains neurons, oligodendrocyte precursor cells, oligodendrocytes, astrocytes and microglia. The assay quantifies myelination by measuring myelin basic protein (MBP) immunofluorescent positive myelin strands from images taken using a Cellomics Array Scan (model Arrayscan VTI HCS Reader) or a Molecular Devices Image Xpress (model IXM XL) high content imager. The myelin strands were quantitated using a custom created myelin detection software program. Test compounds were dissolved in DMSO to make a 10 mM initial stock solution. Dilutions were made in myelination medium to obtain the final solutions for the assay and were tested in primary rat mixed cortical cells at selected doses.
Primary rat mixed cortical cells were prepared from harvested cerebral cortices from postnatal day 1 (P1) rats (P1 Rat CD® IGS pups) were purchased from Charles River) in Complete Dissociation Medium, wherein the meninges were removed and the cortical tissue chopped with a razor blade into ˜1 mm^3 pieces. Tissue from 1-3 pups was collected and placed into 15 ml conical tubes in a total volume of 5 ml of Complete Dissociation Medium. Activated papain (3 ml) was added to each 15 ml conical tube and tissue was incubated at 37° C. for 30 minutes. After the 30 minute incubation, DNase (Sigma D4527; 75 μl of a 1 mg/ml stock) was added to each tube, followed by mechanical trituration using a 2 ml serological pipette and autopipettor to gently dissociate the tissue. Following trituration, larger tissue pieces were allowed to settle by gravity, and the supernatant containing dissociated cells was transferred to a 50 ml conical tube with 4 ml of trypsin inhibitor. Cells were pelleted by centrifugation, resuspended in myelination medium and filtered through a 40 μm filter. Cells were then seeded in 96-well plates (BD Biosciences, Black, PDL-coated, Cat. No. 356640) at 87,500-95,000 cells/well in a final volume of 200 μl of Myelination Medium in the presence or absence of compound and cultured for 14 days in a humidified 37° C. incubator with 5% CO2. Half the medium was removed and replaced with fresh medium containing 1× compound on days 6 and 10. Using a Biotek automatic plate washer (model Biomek® FXP Laboratory Automation Workstation), cells were fixed with 4% paraformaldehyde on day 14, washed with PBS and blocked in 5% normal goat serum (Vector Laboratories, S-1000) in 0.1% PBS-TritonX-100 (PBST) for 1 hour. Cells were stained with 1:500 anti-MBP (Covance, cat # SMI99) primary antibody in 1% normal goat serum in 0.1% PBST for 2 hours at room temperature followed by 2 washes with PBST. A final incubation in secondary antibody (1:1000, Invitrogen, Alexa-488 anti-mouse IgG2b) and 1:10,000 Hoechst dye in 1% normal goat serum in 0.1% PBST was performed for 2 hours at room temperature. Plates were washed with PBS and then scanned on a Cellomics Array Scan using a 10× objective (25 images per well) or the Image Xpress using a 10× objective (9 image per well). Images were analyzed using Vertex myelin detection software (described below) to quantify total MBP myelin pixels per well. Fold myelin pixels above background at two concentrations (1.0 μM and 10.0 μM) relative to baseline of no added compound are reported below in Table 4. Standard deviation for each compound concentration was calculated using all replicates and using a standard deviation formula commonly used in the art.
One of skill in the art would recognize that for this type of primary neuronal mixed cell assay variability between different assay runs is to be expected even though the protocol is the same for each assay run. For instance, variability may be due to small differences in cell viability, cell density, age of the animals, etc.
Vertex Myelin Detection Software: […]

Setting [1] is: relative to baseline of no added compound, read-out: Fold myelin pixels above background.
Where [2] appears, read: read-out: Fold myelin pixels above background relative to baseline of no added compound.
[3] abbreviates: relative to baseline of no added compound, read-out: Fold myelin pixels above background, 1.0 μM.
Where [4] appears, read: relative to baseline of no added compound, read-out: Fold myelin pixels above background, 10.0 μM.

Here are results for 21 molecules from patent US10766869B2, “Triazoles for the treatment of demyelinating dieases” (Vertex Pharmaceuticals Incorporated, priority 2015, dated 2020).

Each structure is given as a SMILES string. Like-named read-outs stand apart in the source and are kept apart here. A value given as a limit tells only on which side of the number the result lay.

As to `Cc1cc(Nc2ncn(-c3cc(F)c(F)cc3F)n2)cc(N2CCN(C3COC3)CC2)c1` [Compound 413, N-[3-methyl-5-[4-(oxetan-3-yl)piperazin-1-yl]phenyl]-1-(2,4,5-trifluorophenyl)-1,2,4-triazol-3-amine], under setting [1], the fold induction at 1 µM is not above 1 and the fold induction at 10 µM lay within 100 to 1000.

`Cc1cc(Nc2ncn(-c3cc(F)cc(F)c3)n2)cc(NC2CCN(CC3CCOC3)CC2)c1` (stereo not drawn) [Compound 1045, N3-[1-(3,5-difluorophenyl)-1,2,4-triazol-3-yl]-5-methyl-N1-[1-(tetrahydrofuran-3-ylmethyl)-4-piperidyl]benzene-1,3-diamine]: under setting [2], the fold induction at 1 µM fell in the range of 1 to 10 and the fold induction at 10 µM is not above 1.

Turning to `Cc1cc(Nc2ncn(-c3ccc(F)c(F)c3)n2)cc(OCc2ccn(C)n2)c1` [Compound 714, 1-(3,4-difluorophenyl)-N-[3-methyl-5-[(1-methylpyrazol-3-yl)methoxy]phenyl]-1,2,4-triazol-3-amine], under setting [1], the fold induction at 1 µM is 10 to 100 and the fold induction at 10 µM was in the range of 10 to 100.

Turning to `Cc1cc(NCC2(N3CCCC3)COC2)cc(Nc2ncn(-c3cc(F)cc(F)c3)n2)c1` [Compound 1020, N1-[1-(3,5-difluorophenyl)-1,2,4-triazol-3-yl]-5-methyl-N3-[(3-pyrrolidin-1-yloxetan-3-yl)methyl]benzene-1,3-diamine], under setting [2], the fold induction at 1 µM lay within 10 to 100 and the fold induction at 10 µM lay within 1 to 10.

For `Cc1cc(Nc2ncn(-c3cc(F)cc(F)c3)n2)c(F)c(N2CCN(CCO)CC2)c1` [Compound 1043, 2-[4-[3-[[1-(3,5-difluorophenyl)-1,2,4-triazol-3-yl]amino]-2-fluoro-5-methyl-phenyl]piperazin-1-yl]ethanol], under setting [2], the fold induction at 1 µM was in the range of 10 to 100 and the fold induction at 10 µM was not above 1.

Turning to `COC1CN(c2cc(C)cc(Nc3ncn(-c4cc(F)cc(F)c4)n3)c2)C1` [Compound 2, 1-(3,5-difluorophenyl)-N-[3-(3-methoxyazetidin-1-yl)-5-methyl-phenyl]-1,2,4-triazol-3-amine], the fold induction at 1 µM under setting [3] is 100 to 1000. Further, the fold induction at 10 µM under setting [4] lay within 100 to 1000.

Consider `Cc1cc(CN2CCN(C3COC3)CC2)c(F)c(Nc2ncn(-c3ccc(F)c(F)c3)n2)c1` [Compound 834, 1-(3,4-difluorophenyl)-N-[2-fluoro-5-methyl-3-[[4-(oxetan-3-yl)piperazin-1-yl]methyl]phenyl]-1,2,4-triazol-3-amine], for which, under setting [2], the fold induction at 1 µM was 1 to 10 and the fold induction at 10 µM was in the range of 1 to 10.

Take `Cc1cc(Nc2ncn(-c3cc(F)cc(F)c3)n2)nc(N2CCN(C(C)(C)C)CC2)c1` [Compound 702, 6-(4-tert-butylpiperazin-1-yl)-N-[1-(3,5-difluorophenyl)-1,2,4-triazol-3-yl]-4-methyl-pyridin-2-amine]: under setting [1], the fold induction at 1 µM was in the range of 10 to 100 and the fold induction at 10 µM is 10 to 100.

On to `Cc1cc(Nc2ncn(-c3cc(F)cc(F)c3)n2)cc(N2CCN(CC(=O)O)CC2)c1` [Compound 125, 2-[4-[3-[[1-(3,5-difluorophenyl)-1,2,4-triazol-3-yl]amino]-5-methyl-phenyl]piperazin-1-yl]acetic acid], for which the fold induction at 1 µM under setting [3] was in the range of 10 to 100. Further, the fold induction at 10 µM under setting [4] lay in the range of 1 to 10.

On to `Fc1cc(Nc2ncn(-c3ccc(F)cc3F)n2)cc(N2CCOCC2)c1` [Compound 321, 1-(2,4-difluorophenyl)-N-(3-fluoro-5-morpholino-phenyl)-1,2,4-triazol-3-amine], for which the fold induction at 1 µM under setting [3] is 1 to 10. Under setting [4], the fold induction at 10 µM was not above 1.

In the case of `Cc1cc(Nc2ncn(-c3cc(F)cc(F)c3)n2)cc(C2CCCN(C3COC3)C2)c1` (stereo not drawn) [Compound 408, 1-(3,5-difluorophenyl)-N-[3-methyl-5-[1-(oxetan-3-yl)-3-piperidyl]phenyl]-1,2,4-triazol-3-amine], under setting [1], the fold induction at 1 µM lay within 100 to 1000 and the fold induction at 10 µM fell in the range of 10 to 100.

Turning to `CCN(CC)C(=O)C1CN(c2cc(C)cc(Nc3ncn(-c4cc(F)cc(F)c4)n3)c2)C1` [Compound 817, 1-[3-[[1-(3,5-difluorophenyl)-1,2,4-triazol-3-yl]amino]-5-methyl-phenyl]-N,N-diethyl-azetidine-3-carboxamide], under setting [2], the fold induction at 1 µM was in the range of 10 to 100 and the fold induction at 10 µM fell in the range of 10 to 100.

In the case of `FC(F)(F)c1cc(Nc2ncn(-c3cnccn3)n2)nc(N2CCN(C3COC3)CC2)c1` [Compound 712, 6-[4-(oxetan-3-yl)piperazin-1-yl]-N-(1-pyrazin-2-yl-1,2,4-triazol-3-yl)-4-(trifluoromethyl)pyridin-2-amine], under setting [1], the fold induction at 1 µM is 1 to 10 and the fold induction at 10 µM is 1 to 10.

As to `Cc1cc(Nc2ncn(-c3cc(F)cc(F)c3)n2)cc(N2CCC3(COC3)C2)c1` [Compound 444, 1-(3,5-difluorophenyl)-N-[3-methyl-5-(2-oxa-7-azaspiro[3.4]octan-7-yl)phenyl]-1,2,4-triazol-3-amine], under setting [1], the fold induction at 1 µM is not above 1 and the fold induction at 10 µM lay in the range of 1 to 10.

In the case of `Cc1cc(Nc2ncn(-c3ccc(F)c(F)c3)n2)cc(OCCN2CCOCC2)c1` [Compound 845, 1-(3,4-difluorophenyl)-N-[3-methyl-5-(2-morpholinoethoxy)phenyl]-1,2,4-triazol-3-amine], under setting [2], the fold induction at 1 µM is 10 to 100 and the fold induction at 10 µM was 1 to 10.

Turning to `Cc1cc(Nc2ncn(-c3cc(F)cc(F)c3)n2)cc(N2CCC(C3CCOC3)C2)c1` (stereo not drawn) [Compound 1083, 1-(3,5-difluorophenyl)-N-[3-methyl-5-(3-tetrahydrofuran-3-ylpyrrolidin-1-yl)phenyl]-1,2,4-triazol-3-amine], under setting [2], the fold induction at 1 µM lay within 1 to 10 and the fold induction at 10 µM is not above 1.

With `Cc1cc(Nc2ncn(-c3cc(F)cc(F)c3)n2)cc(N2CC(O)C2)c1` [Compound 355, 1-[3-[[1-(3,5-difluorophenyl)-1,2,4-triazol-3-yl]amino]-5-methyl-phenyl]azetidin-3-ol], the fold induction at 1 µM under setting [3] is 10 to 100. Further, the fold induction at 10 µM under setting [4] lay within 100 to 1000.

For `Cc1cc(Nc2ncn(-c3ccc(F)c(C)c3)n2)cc(N2CCN(C3COC3)CC2)c1` [Compound 780, 1-(4-fluoro-3-methyl-phenyl)-N-[3-methyl-5-[4-(oxetan-3-yl)piperazin-1-yl]phenyl]-1,2,4-triazol-3-amine], under setting [1], the fold induction at 1 µM lay in the range of 1 to 10 and the fold induction at 10 µM fell in the range of 1 to 10.

For `Cc1cc(Nc2ncn(-c3cc(F)cc(F)c3)n2)cc(NC2CCCC2N2CCOCC2)c1` (stereo not drawn) [Compound 912, N3-[1-(3,5-difluorophenyl)-1,2,4-triazol-3-yl]-5-methyl-N1-(2-morpholinocyclopentyl)benzene-1,3-diamine], under setting [2], the fold induction at 1 µM was in the range of 1 to 10 and the fold induction at 10 µM fell in the range of 1 to 10.

For `CN1CCN(c2cc(Nc3ncn(-c4cc(F)cc(F)c4)n3)cc(C(F)(F)F)c2)CC1` [Compound 63, 1-(3,5-difluorophenyl)-N-[3-(4-methylpiperazin-1-yl)-5-(trifluoromethyl)phenyl]-1,2,4-triazol-3-amine], the fold induction at 1 µM under setting [3] is 10 to 100. Further, the fold induction at 10 µM under setting [4] was 1 to 10.

In the case of `Cc1cc(Nc2ncn(-c3cc(F)cc(F)c3)n2)cc(N2CCC(C3COC3)CC2)c1` [Compound 216, 1-(3,5-difluorophenyl)-N-[3-methyl-5-[4-(oxetan-3-yl)-1-piperidyl]phenyl]-1,2,4-triazol-3-amine], the fold induction at 1 µM under setting [3] lay within 1 to 10. Moreover, under setting [4], the fold induction at 10 µM lay in the range of 10 to 100.
